# Like-named read-outs stand apart in the source and are kept apart here.
# How the values were obtained:
# [1] = system: Citrobacter freundii (CFR) isolates; assay: MIC of compounds alone and combined with antibacterials, broth microdilution (CLSI); format: cell-based
# Summary of the method: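 Log-phase isolates were inoculated at a final 5.10^5 CFU/mL in cation-adjusted Mueller-Hinton broth and incubated 16-20 h at 35° C in ambient air. MIC was the lowest concentration preventing visible growth; for combinations, the antibacterial MIC was read at each compound concentration.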
# [2] = system: Citrobacter murliniae (CMU) isolates; assay: as above; format: cell-based
# Summary of the method: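 Growth inhibition was read visually after 16-20 h at 35° C, giving compound MICs and antibacterial MICs at each fixed compound level. Bacteria in log phase were inoculated at 5.10^5 CFU/mL in ca-MHB onto DMSO-spotted compound or compound/antibacterial dilutions per CLSI microdilution.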
# [3] = strain CFR UFR11, genotype TEM-1, OXA-1, OXA-48
# [4] = strain CFR UFR37, genotype TEM-1, CTX-M-15, NDM-1
# [5] = strain CFR UFR83, genotype TEM-3, AmpC
# [6] = strain CFR UFR146, genotype TEM-1, KPC-2
# [7] = strain CFR UFR147, genotype TEM-1, CTX-M-15, OXA-1, OXA-181, OXA-10, OXA-9, NDM-1, ArmA, dfrA12, aadA2, antibiotic alone
# [8] = strain CFR UFR148, genotype TEM-1, TEM-2, CTX-M-15, NDM-1, antibiotic alone
# [9] = strain CFR UFR249, genotype TEM-1, CTX-M-15
# [10] = strain CFR UFR252, genotype VIM-2, antibiotic alone
# [11] = strain CFR UFR253, genotype TEM-1, SHV-12, OXA-48
smiles,measurement,setting,value
"CC1(C)S[C@@H]2[C@H](NC(=O)[C@H](N)c3ccc(O)cc3)C(=O)N2[C@H]1C(=O)O [AMX, Amoxicillin]",MIC ATB in combination,"[1]; CFR UFR10, AF2 @ 8 μg/mL",1 µg/mL
same,MIC ATB in combination,"[1]; CFR UFR10, CLA @ 4 μg/mL",>128 µg/mL
same,MIC ATB in combination,"[1]; CFR UFR11, AF2 @ 8 μg/mL",>128 µg/mL
same,MIC ATB in combination,"[1]; CFR UFR11, CLA @ 4 μg/mL",>128 µg/mL
same,MIC ATB in combination,"[1]; CFR UFR37, AF2 @ 8 μg/mL",<0.25 µg/mL
same,MIC ATB in combination,"[1]; CFR UFR37, CLA @ 4 μg/mL",>128 µg/mL
same,MIC ATB in combination,"[1]; CFR UFR83, AF2 @ 8 μg/mL",>128 µg/mL
same,MIC ATB in combination,"[1]; CFR UFR83, CLA @ 4 μg/mL",>128 µg/mL
same,MIC ATB in combination,"[1]; CFR UFR146, CLA @ 4 μg/mL",>128 µg/mL
same,MIC ATB in combination,"[1]; CFR UFR248, CLA @ 4 μg/mL",>128 µg/mL
same,MIC ATB in combination,"[1]; CFR UFR249, CLA @ 4 μg/mL",>128 µg/mL
same,MIC ATB in combination,"[1]; CFR UFR250, CLA @ 4 μg/mL",128 µg/mL
same,MIC,"[1]; strain CFR UFR10, genotype OXA-48",>256 µg/mL
same,MIC,[1]; [3],>256 µg/mL
same,MIC,[1]; [4],>256 µg/mL
same,MIC,[1]; [5],>256 µg/mL
same,MIC,[1]; [6],>128 µg/mL
same,MIC,[1]; [7],>128 µg/mL
same,MIC ATB in combination,"[1]; strain CFR UFR147, with CLA @ 4 μg/mL",>128 µg/mL
same,MIC,[1]; [8],>128 µg/mL
same,MIC ATB in combination,"[1]; strain CFR UFR148, with CLA @ 4 μg/mL",>128 µg/mL
same,MIC,"[1]; strain CFR UFR248, genotype CTX-M-15",>128 µg/mL
same,MIC,[1]; [9],>128 µg/mL
same,MIC,"[1]; strain CFR UFR250, genotype TEM-1, SHV-28, CTX-M-15",>128 µg/mL
same,MIC,"[1]; strain CFR UFR251, genotype SHV-11, VIM-1, antibiotic alone",>128 µg/mL
same,MIC ATB in combination,"[1]; strain CFR UFR251, with CLA @ 4 μg/mL",>128 µg/mL
same,MIC,[1]; [10],>128 µg/mL
same,MIC ATB in combination,"[1]; strain CFR UFR252, with CLA @ 4 μg/mL",>128 µg/mL
same,MIC,[1]; [11],>128 µg/mL
same,MIC ATB in combination,"[1]; strain CFR UFR253, with CLA @ 4 μg/mL",>128 µg/mL
same,MIC,"[1]; strain CFR UFR254, genotype VEB-1b, OXA-48, qnrA",>128 µg/mL
same,MIC ATB in combination,"[1]; strain CFR UFR254, with CLA @ 4 μg/mL",>128 µg/mL
same,MIC ATB in combination,[2],>128 µg/mL
same,MIC,"[2]; strain CMU 210102, genotype VIM-4",>256 µg/mL
"CC(C)(O/N=C(\C(=O)N[C@@H]1C(=O)N2C(C(=O)[O-])=C(C[n+]3ccccc3)CS[C@H]12)c1csc(N)n1)C(=O)O [CAZ, Ceftazidime]",MIC ATB in combination,"[1]; CFR UFR10, AF2 @ 8 μg/mL",<=0.25 μg/mL
same,MIC ATB in combination,"[1]; CFR UFR10, AF3 @ 8 μg/mL",<0.25 µg/mL
same,MIC ATB in combination,"[1]; CFR UFR11, AF2 @ 8 μg/mL",8 µg/mL
same,MIC ATB in combination,"[1]; CFR UFR11, AF3 @ 8 μg/mL",4 µg/mL
same,MIC ATB in combination,"[1]; CFR UFR37, AF2 @ 8 μg/mL",8 µg/mL
same,MIC ATB in combination,"[1]; CFR UFR37, AF3 @ 8 μg/mL",<0.25 µg/mL
same,MIC ATB in combination,"[1]; CFR UFR83, AF2 @ 8 μg/mL",>128 µg/mL
same,MIC ATB in combination,"[1]; CFR UFR83, AF3 @ 8 μg/mL",>128 µg/mL
same,MIC ATB in combination,"[1]; CFR UFR146, AF2 @ 8 μg/mL",2 µg/mL
same,MIC ATB in combination,"[1]; CFR UFR146, AF3 @ 8 μg/mL",1 µg/mL
same,MIC ATB in combination,"[1]; CFR UFR248, AF2 @ 8 μg/mL",<0.25 µg/mL
same,MIC ATB in combination,"[1]; CFR UFR248, AF3 @ 8 μg/mL",<0.25 µg/mL
same,MIC ATB in combination,"[1]; CFR UFR249, AF2 @ 8 μg/mL",<=0.25 μg/mL
same,MIC ATB in combination,"[1]; CFR UFR249, AF3 @ 8 μg/mL",<0.25 µg/mL
same,MIC ATB in combination,"[1]; CFR UFR250, AF2 @ 8 μg/mL",<=0.25 μg/mL
same,MIC ATB in combination,"[1]; CFR UFR250, AF3 @ 8 μg/mL",<0.25 µg/mL
same,MIC,[1]; [3],8 µg/mL
same,MIC,[1]; [4],>128 µg/mL
same,MIC,[1]; [5],>128 µg/mL
same,MIC,[1]; [6],32 µg/mL
same,MIC,[1]; [7],>128 µg/mL
same,MIC ATB in combination,"[1]; strain CFR UFR147, with AF2 @ 8 μg/mL",<0.25 µg/mL
same,MIC ATB in combination,"[1]; strain CFR UFR147, with AF3 @ 8 μg/mL",<0.25 µg/mL
same,MIC,[1]; [8],>128 µg/mL
same,MIC ATB in combination,"[1]; strain CFR UFR148, with AF2 @ 8 μg/mL",<0.25 µg/mL
same,MIC ATB in combination,"[1]; strain CFR UFR148, with AF3 @ 8 μg/mL",<0.25 µg/mL
same,MIC,[1]; [9],64 µg/mL
same,MIC ATB in combination,"[1]; strain CFR UFR251, with AF2 @ 8 μg/mL",0.5 µg/mL
same,MIC ATB in combination,"[1]; strain CFR UFR251, with AF3 @ 8 μg/mL",<0.25 µg/mL
same,MIC,[1]; [10],64 µg/mL
same,MIC ATB in combination,"[1]; strain CFR UFR252, with AF2 @ 8 μg/mL",8 µg/mL
same,MIC ATB in combination,"[1]; strain CFR UFR252, with AF3 @ 8 μg/mL",16 µg/mL
same,MIC,[1]; [11],>128 µg/mL
same,MIC ATB in combination,"[1]; strain CFR UFR253, with AF2 @ 8 μg/mL",8 µg/mL
same,MIC ATB in combination,"[1]; strain CFR UFR253, with AF3 @ 8 μg/mL",4 µg/mL
same,MIC ATB in combination,"[1]; strain CFR UFR254, with AF2 @ 8 μg/mL",<0.25 µg/mL
same,MIC ATB in combination,"[1]; strain CFR UFR254, with AF3 @ 8 μg/mL",0.5 µg/mL
"C=CC1=C(C(=O)O)N2C(=O)[C@@H](NC(=O)/C(=N\O)c3csc(N)n3)[C@H]2SC1 [CDR, Cefdinir]",MIC,"[1]; Citrobacter freundii, strain CFR UFR10, genotype OXA-48",> 256 µg/mL
same,MIC,"[1]; Citrobacter freundii, strain CFR UFR11, genotype TEM-1, OXA-1, OXA-48",> 256 µg/mL
same,MIC,"[1]; Citrobacter freundii, strain CFR UFR83, genotype TEM-3, AmpC",> 256 µg/mL
same,MIC,"[1]; Citrobacter freundii, strain CFR UFR146, genotype TEM-1, KPC-2, read-out: MIC",256 µg/mL
same,MIC,"[1]; Citrobacter freundii, strain CFR UFR248, genotype CTX-M-15",> 256 µg/mL
same,MIC,"[1]; Citrobacter freundii, strain CFR UFR249, genotype TEM-1, CTX-M-15",> 256 µg/mL
same,MIC,"[1]; Citrobacter freundii, strain CFR UFR250, genotype TEM-1, SHV-28, CTX-M-15",> 256 µg/mL
same,MIC,"[1]; Citrobacter freundii, strain CFR UFR253, genotype TEM-1, SHV-12, OXA-48",> 256 µg/mL
same,MIC,"[1]; Citrobacter freundii, strain CFR UFR254, genotype VEB-1b, OXA-48, qnrA, read-out: MIC",256 µg/mL
